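Grown in 96-well plates, cells were treated for 48 hours with each compound at five concentrations. Insufficient inhibition: endpoint recorded as highest concentration tested. GI50 marks 50% less growth.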 The source made the active and inactive calls. Cut-off read from the data, not from the text of the source: active = GI50 up to about 1.1 µM and inactive = higher.

The results in this text go back to ChEMBL document CHEMBL1201862, “PubChem BioAssay data set” (2004).

Test systems include SN12C; HCT-116; KM12; UACC-257; HOP-92; COLO 205; SNB-19; LOX IMVI; CCRF-CEM; A498; HOP-62; IGROV-1; OVCAR-8; SK-MEL-28; SNB-78; NCI-H460; NCI/ADR-RES; PC-3; Hs-578T; MCF7.
Experiment in all cases: NCI tumour cell line growth inhibition, 48 h

Consider `O=C(NNC(=O)/C(=C/c1cccc([N+](=O)[O-])c1)NC(=O)c1ccccc1)Nc1ccc(Cl)cc1`, for which the GI50 with SN12C was 14.5 µM (inactive); in the assay on HCT-116, 13.4 µM (inactive); in the assay on KM12, 11.4 µM (inactive); in the assay on UACC-257, 17.6 µM (inactive); in the assay with HOP-92 it was 21 µM (inactive); with COLO 205 it was 13.4 µM (inactive). For the same compound, the GI50 with SNB-19 was 12.7 µM (inactive); in the assay on LOX IMVI, 15.6 µM (inactive); in the assay with CCRF-CEM, 6.58 µM (inactive); with A498, 10.6 µM (inactive); in the assay with HOP-62, 14.3 µM (inactive); with IGROV-1, 11.9 µM (inactive). Also, the GI50 in the assay with OVCAR-8 was 14.2 µM (inactive); in the assay on SK-MEL-28, 15.5 µM (inactive); in the assay with SNB-78, 24 µM (inactive); with NCI-H460, 14.6 µM (inactive).
Regarding `O=C1C(O)=C(CC=C(Cl)Cl)C(=O)c2ccccc21`, the GI50 was 12.9 µM (inactive) in the assay with SN12C; 1.36 µM (inactive) in the assay with HCT-116; 6.46 µM (inactive) with KM12; 19.1 µM (inactive) in the assay on NCI/ADR-RES; 15.1 µM (inactive) in the assay with UACC-257; 10.9 µM (inactive) with PC-3. Besides, the GI50 in the assay on HOP-92 is 43 µM (inactive); in the assay on COLO 205, 19.5 µM (inactive); in the assay with SNB-19 it was 11 µM (inactive); in the assay on LOX IMVI, 2.23 µM (inactive); with Hs-578T, 42.4 µM (inactive); in the assay on MCF7 it was 8.87 µM (inactive). The GI50 in the assay on CCRF-CEM was 2.82 µM (inactive); with A498, 30 µM (inactive); with HOP-62, 12.4 µM (inactive); in the assay on IGROV-1 it was 6.5 µM (inactive); in the assay on OVCAR-8, 5.48 µM (inactive); with SK-MEL-28, 23.4 µM (inactive). Also, the results for the GI50 with SNB-78 and with NCI-H460 were 21.9 µM (inactive) and 1.45 µM (inactive), respectively.
As for `N#Cc1ccccc1/C=N/O`, the GI50 is > 100 µM (inactive) in the assay with SN12C; > 44.2 µM (inactive) in the assay on HCT-116; > 100 µM (inactive) in the assay on KM12; > 100 µM (inactive) with UACC-257; > 100 µM (inactive) with HOP-92; > 49.7 µM (inactive) with COLO 205. Besides, the GI50 with SNB-19 is > 100 µM (inactive); in the assay with LOX IMVI, > 100 µM (inactive); in the assay with CCRF-CEM, > 50.8 µM (inactive); with A498, > 100 µM (inactive); in the assay on HOP-62, > 100 µM (inactive); with IGROV-1, > 100 µM (inactive). The GI50 was > 100 µM (inactive) in the assay with OVCAR-8, > 100 µM (inactive) with SK-MEL-28, > 100 µM (inactive) in the assay with SNB-78 and > 59.2 µM (inactive) in the assay on NCI-H460.
Consider `Cc1ccc(S(=O)(=O)NC(=O)NCCc2ccccc2)cc1`, for which the GI50 in the assay with SN12C was > 100 µM (inactive); in the assay with HCT-116, > 100 µM (inactive); in the assay with KM12 it was > 100 µM (inactive); with UACC-257, 25.9 µM (inactive); with HOP-92 it was > 100 µM (inactive); in the assay on COLO 205 it was > 100 µM (inactive). In addition, the GI50 in the assay with SNB-19, in the assay with LOX IMVI, with CCRF-CEM, with A498, in the assay on HOP-62 and with IGROV-1 was > 100 µM (inactive) throughout. Besides, the GI50 in the assay on OVCAR-8, in the assay with SK-MEL-28, in the assay with SNB-78 and in the assay on NCI-H460 was > 100 µM (inactive) each time.
`C[C@]12C=CC(=O)C=C1[C@@H](F)C[C@H]1[C@@H]3CC[C@](O)(C(=O)CO)[C@@]3(C)C[C@H](O)[C@@]12F`: the GI50 in the assay on SN12C, in the assay with HCT-116, with KM12, in the assay with NCI/ADR-RES, in the assay on UACC-257 and in the assay on PC-3 was > 100 µM (inactive) each time. The GI50 in the assay with HOP-92, in the assay on COLO 205, in the assay with SNB-19, with LOX IMVI, with Hs-578T and in the assay on MCF7 was > 100 µM (inactive) in each case. The GI50 with CCRF-CEM was 0.543 µM (active); with A498, > 100 µM (inactive); in the assay with HOP-62, > 100 µM (inactive); with IGROV-1, > 100 µM (inactive); in the assay on OVCAR-8, > 100 µM (inactive); in the assay with SK-MEL-28, > 100 µM (inactive). Besides, the GI50 is > 84.1 µM (inactive) in the assay with SNB-78 and > 100 µM (inactive) with NCI-H460.
As to `C#CCNC(=O)N(CC#C)N=O`, the GI50 with SN12C, in the assay with HCT-116, in the assay on KM12, with UACC-257, in the assay with HOP-92 and with SNB-19 was > 100 µM (inactive) each time. The GI50 with LOX IMVI is 38.6 µM (inactive); in the assay on CCRF-CEM, 37.9 µM (inactive); with A498 it was > 100 µM (inactive); in the assay with HOP-62, > 100 µM (inactive); in the assay on IGROV-1, > 100 µM (inactive); with OVCAR-8 it was > 100 µM (inactive). For the same compound, the GI50 in the assay with SK-MEL-28, in the assay with SNB-78 and in the assay with NCI-H460 was > 100 µM (inactive) throughout.
For the compound `COc1cc(Br)c(/C=N\c2cccc3ccc(OS(=O)(=O)c4ccc([N+](=O)[O-])cc4)cc23)cc1OC`, the GI50 with SN12C was > 100 µM (inactive); with HCT-116, > 100 µM (inactive); with KM12, 59.4 µM (inactive); in the assay on UACC-257, > 100 µM (inactive); in the assay with HOP-92 it was 47.3 µM (inactive); in the assay with COLO 205, > 100 µM (inactive). The GI50 with SNB-19 is 63.4 µM (inactive); in the assay with LOX IMVI it was 6.59 µM (inactive); in the assay with CCRF-CEM, > 100 µM (inactive); with A498, > 100 µM (inactive); in the assay on HOP-62, > 100 µM (inactive); in the assay with IGROV-1, > 100 µM (inactive). Further, the GI50 in the assay with OVCAR-8 was > 100 µM (inactive); in the assay on SK-MEL-28, 28.6 µM (inactive); with SNB-78 it was 34.2 µM (inactive); in the assay on NCI-H460 it was > 100 µM (inactive).
As for `O=C(Nc1cccc(C(F)(F)F)c1)C(=O)C1NC(=S)NC1=O` (stereo not given), the GI50 in the assay on SN12C was > 100 µM (inactive); in the assay with HCT-116, 82.4 µM (inactive); in the assay with KM12, > 100 µM (inactive); in the assay with UACC-257 it was 31.6 µM (inactive); in the assay with HOP-92, > 100 µM (inactive); with COLO 205 it was 39 µM (inactive). Besides, the GI50 in the assay with SNB-19 was > 100 µM (inactive); with LOX IMVI, 72.9 µM (inactive); in the assay with CCRF-CEM it was 54.5 µM (inactive); in the assay with A498, > 100 µM (inactive); with HOP-62 it was > 100 µM (inactive); with IGROV-1, > 100 µM (inactive). Also, the GI50 with OVCAR-8, in the assay on SK-MEL-28, in the assay with SNB-78 and in the assay on NCI-H460 was > 100 µM (inactive) in each case.
